PubChem BioAssay AID248 (DTP/NCI, 2004)
Inconclusive results and toxic doses are left out. No stated cut-off is given here; in the data, active means T/C of 150% or more; inactive means T/C below 125%.

System: L1210 leukemia ip in BDF1 mice, survival T/C
Test: NCI In Vivo Anticancer Drug Screen. Data for tumor model L1210 Leukemia (intraperitoneal) in B6D2F1 (BDF1) mice
Details: endpoint: mean survival time, higher = longer survival
Procedure, shortened: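 Transplantable tumor model; survival measured in treated vs vehicle control mice. Value = treated/control.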

[1] = dose: 100.0 mg/kg/injection, schedule: Q01DX009 (ip), vehicle: Klucel (hydroxypropylcellulose) (HPC)
[2] = dose: 100.0 mg/kg/injection, schedule: Q04DX003 (ip), vehicle: Klucel (hydroxypropylcellulose) (HPC)
[3] = dose: 200.0 mg/kg/injection, schedule: Q01DX009 (ip), vehicle: Klucel (hydroxypropylcellulose) (HPC)
[4] = dose: 200.0 mg/kg/injection, schedule: Q04DX003 (ip), vehicle: Klucel (hydroxypropylcellulose) (HPC)
[5] = dose: 400.0 mg/kg/injection, schedule: Q01DX009 (ip), vehicle: Klucel (hydroxypropylcellulose) (HPC)
[6] = dose: 400.0 mg/kg/injection, schedule: Q04DX003 (ip), vehicle: Klucel (hydroxypropylcellulose) (HPC)
[7] = dose: 100.0 mg/kg/injection, schedule: Q04DX003 (ip), vehicle: saline
[8] = dose: 200.0 mg/kg/injection, schedule: Q04DX003 (ip), vehicle: saline
[9] = dose: 400.0 mg/kg/injection, schedule: Q04DX003 (ip), vehicle: saline
[10] = dose: 100.0 mg/kg/injection, schedule: Q01DX001 (ip), vehicle: saline
[11] = dose: 200.0 mg/kg/injection, schedule: Q01DX001 (ip), vehicle: saline
[12] = dose: 400.0 mg/kg/injection, schedule: Q01DX001 (ip), vehicle: saline

Measured: T/C

[O-]/[N+](=N/O)c1ccc(Cl)cc1
inactive: dose: 25.0 mg/kg/injection, schedule: Q01DX001 (ip), vehicle: saline with Tween-80 96 % of control | dose: 25.0 mg/kg/injection, schedule: Q01DX009 (ip), vehicle: saline with Tween-80 100 % of control | dose: 25.0 mg/kg/injection, schedule: Q04DX003 (ip), vehicle: saline with Tween-80 103 % of control | dose: 50.0 mg/kg/injection, schedule: Q01DX001 (ip), vehicle: saline with Tween-80 92 % of control | dose: 50.0 mg/kg/injection, schedule: Q01DX009 (ip), vehicle: saline with Tween-80 94 % of control | dose: 50.0 mg/kg/injection, schedule: Q04DX003 (ip), vehicle: saline with Tween-80 94 % of control | dose: 100.0 mg/kg/injection, schedule: Q01DX001 (ip), vehicle: saline with Tween-80 100 % of control | dose: 100.0 mg/kg/injection, schedule: Q04DX003 (ip), vehicle: saline with Tween-80 92 % of control

O=[N+]([O-])c1ccc2cn[nH]c2c1
inactive: [1] 112 % of control | [2] 95 % of control | [3] 106 % of control | [4] 92 % of control | [5] 107 % of control | [6] 96 % of control

Nc1ccn(CC(=O)N2CCC3(CC2)SSC2(CCN(C(=O)Cn4ccc(N)nc4=O)CC2)S3)c(=O)n1
inactive: [7] 97 % of control | [8] 91 % of control | [9] 97 % of control

COc1cc(C(=O)OC2=CC(=O)c3nc(OC(=O)c4cc(OC)c(OC)c(OC)c4)ccc3C2=O)cc(OC)c1OC
inactive: [10] 93 % of control | [11] 91 % of control | [12] 95 % of control

O=C(Nc1ccc(C(=O)O)cc1)Nc1ccccc1C(F)(F)F
inactive: dose: 100.0 mg/kg/injection, schedule: Q01DX009 (ip), vehicle: gum acacia 100 % of control | dose: 200.0 mg/kg/injection, schedule: Q01DX009 (ip), vehicle: gum acacia 102 % of control | dose: 400.0 mg/kg/injection, schedule: Q01DX009 (ip), vehicle: gum acacia 96 % of control

O=C(COC(=O)c1c(Cl)c(Cl)c(Cl)c(Cl)c1C(=O)O)c1ccc(-c2ccccc2)cc1
inactive: [10] 94 % of control | [11] 102 % of control | [12] 91 % of control

c1ccc(Cc2nnc(Cc3ccccc3)nn2)cc1
inactive: dose: 100.0 mg/kg/injection, schedule: Q04DX002 (ip), vehicle: Klucel (hydroxypropylcellulose) (HPC) 91 % of control | dose: 200.0 mg/kg/injection, schedule: Q04DX002 (ip), vehicle: Klucel (hydroxypropylcellulose) (HPC) 102 % of control | dose: 400.0 mg/kg/injection, schedule: Q04DX002 (ip), vehicle: Klucel (hydroxypropylcellulose) (HPC) 105 % of control

Cn1cnc(=O)c2ccccc21
inactive: [7] 88 % of control | [8] 100 % of control

COc1ccc(/C(=N\O)C(c2ccc(OC)cc2)C(Cl)(Cl)Cl)cc1 (centres undefined)
inactive: [1] 92 % of control | [3] 95 % of control | [5] 97 % of control

c1ccc(CSC2=NCCS2)cc1
inactive: [10] 101 % of control | dose: 100.0 mg/kg/injection, schedule: Q01DX009 (ip), vehicle: saline with Tween-80 98 % of control | [11] 106 % of control | dose: 200.0 mg/kg/injection, schedule: Q01DX009 (ip), vehicle: saline with Tween-80 98 % of control | [12] 106 % of control | dose: 400.0 mg/kg/injection, schedule: Q01DX009 (ip), vehicle: saline with Tween-80 104 % of control

CCCCCCCCCCCCCCCCCCNC(=O)CCl
inactive: [1] 94 % of control | [2] 92 % of control | [3] 89 % of control | [4] 90 % of control | [6] 97 % of control

CC(=O)Oc1ccc(OC(C)=O)c2c1CC(C)=C(C)C2
inactive: dose: 100.0 mg/kg/injection, schedule: Q01DX009 (ip), vehicle: saline 95 % of control | [7] 97 % of control | dose: 200.0 mg/kg/injection, schedule: Q01DX009 (ip), vehicle: saline 90 % of control | [8] 98 % of control | dose: 400.0 mg/kg/injection, schedule: Q01DX009 (ip), vehicle: saline 92 % of control | [9] 97 % of control

Cc1nc2ccccc2nc1CI
inactive: dose: 3.12 mg/kg/injection, schedule: Q01DX009 (ip), vehicle: acetone 100 % of control | dose: 6.25 mg/kg/injection, schedule: Q01DX009 (ip), vehicle: acetone 104 % of control | dose: 12.5 mg/kg/injection, schedule: Q01DX009 (ip), vehicle: acetone 100 % of control | dose: 12.5 mg/kg/injection, schedule: Q04DX003 (ip), vehicle: acetone 113 % of control | dose: 18.0 mg/kg/injection, schedule: Q01DX009 (ip), vehicle: saline with Tween-80 92 % of control

Clc1nc(Cl)c(Cl)[nH]1
inactive: dose: 6.25 mg/kg/injection, schedule: Q01DX009 (ip), vehicle: saline with Tween-80 94 % of control | dose: 12.5 mg/kg/injection, schedule: Q01DX009 (ip), vehicle: saline with Tween-80 93 % of control

CC(C(=O)c1cccs1)=C(C(F)(F)F)C(F)(F)F
inactive: dose: 100.0 mg/kg/injection, schedule: Q04DX003 (ip), vehicle: other 100 % of control | dose: 200.0 mg/kg/injection, schedule: Q04DX003 (ip), vehicle: other 94 % of control | dose: 400.0 mg/kg/injection, schedule: Q04DX003 (ip), vehicle: other 98 % of control

CCN(CC)CCNc1ccc(CO)c2oc3cc(Cl)ccc3c(=O)c12
inactive: dose: 31.25 mg/kg/injection, schedule: Q01DX009 (ip), vehicle: Klucel (hydroxypropylcellulose) (HPC) 94 % of control | dose: 62.5 mg/kg/injection, schedule: Q01DX009 (ip), vehicle: Klucel (hydroxypropylcellulose) (HPC) 100 % of control | dose: 125.0 mg/kg/injection, schedule: Q01DX009 (ip), vehicle: Klucel (hydroxypropylcellulose) (HPC) 96 % of control
